No end group written: not given here.
Assays:
[1] = LD50 (preliminary data); assay type: in vivo; settings: intratracheal administration
[2] = test system: A. baumannii laboratory strains (ATCC strains 17,978 and 19,606); assay type: cell-based, Acinetobacter baumannii; settings: disc diffusion; activity = inhibition zone diameter ≥ 10 mm
Procedure: The antimicrobial activities of 58 AMPs were screened against A. baumannii laboratory strains (ATCC strains 17,978 and 19,606) in vitro using a disc diffusion assay (Supplementary Table 1).
The antimicrobial activity against Acinetobacter baumannii were determined by a inhibition zone
assay, performed as previous described1. The AMPs with an inhibition zone diameter ≥ 10 mm were
determined as the AMPs with antimicrobial activity.

[3] = test system: MDRAB clinical strain K2; assay type: cell-based, Acinetobacter baumannii; settings: strain K2, 24 h 37 °C
Procedure: (§1) MBC were determined by extending the MIC procedure in sterilized 96-well polypropylene microtiter plates according to the broth microdilution guidelines of the Clinical and Laboratory Standards Institute with some modification[47]. […] In addition, 10 µL was drawn from each well with no visible turbidity onto LB agar plates and incubated for 24 h at 37 °C. The lowest concentration showing no visible growth on agar subculture was used as the MBC value. All experiments were performed in triplicate.

[4] = test system: MDRAB clinical strain AO80; assay type: cell-based, Acinetobacter baumannii; settings: strain AO80, 24 h 37 °C
Procedure: as §1

[5] = test system: MDRAB clinical strains; assay type: cell-based, Acinetobacter baumannii; settings: range over MDRAB clinical strains (details in Supplementary Table 2), 24 h 37 °C
Procedure: as §1

[6] = test system: MDRAB clinical strain AK61; assay type: cell-based, Acinetobacter baumannii; settings: strain AK61, 24 h 37 °C
Procedure: as §1

[7] = test system: MDRAB clinical strain O59; assay type: cell-based, Acinetobacter baumannii; settings: strain O59, 24 h 37 °C
Procedure: as §1

[8] = test system: MDRAB clinical strain L87; assay type: cell-based, Acinetobacter baumannii; settings: strain L87, 24 h 37 °C
Procedure: as §1

[9] = test system: MDRAB clinical strain Y92; assay type: cell-based, Acinetobacter baumannii; settings: strain Y92, 24 h 37 °C
Procedure: as §1

[10] = test system: MDRAB clinical strain AE6; assay type: cell-based, Acinetobacter baumannii; settings: strain AE6, 24 h 37 °C
Procedure: as §1

[11] = test system: MDRAB clinical strain J49; assay type: cell-based, Acinetobacter baumannii; settings: strain J49, 24 h 37 °C
[12] = test system: Acinetobacter baumannii 19,606; assay type: cell-based; settings: 24 h at 37 °C, triplicate
[13] = test system: MDRAB clinical strain U95; assay type: cell-based, Acinetobacter baumannii; settings: strain U95, 24 h 37 °C
[14] = test system: Acinetobacter baumannii 17,978; assay type: cell-based; settings: 24 h at 37 °C, triplicate;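 note: CLSI broth microdilution in 96-well polypropylene plates, MBC taken as lowest concentration giving no growth when clear wells were subcultured on LB agar for 24 h at 37 °C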
Procedure: as §1

[15] = test system: MDRAB clinical strain AZ93; assay type: cell-based, Acinetobacter baumannii; settings: strain AZ93, 24 h 37 °C
[16] = test system: MDRAB clinical strain D29; assay type: cell-based, Acinetobacter baumannii; settings: strain D29, 24 h 37 °C
Procedure: as §1

[17] = test system: MDRAB clinical strain W11; assay type: cell-based, Acinetobacter baumannii; settings: strain W11, 24 h 37 °C
[18] = test system: MDRAB clinical strain AN10; assay type: cell-based, Acinetobacter baumannii; settings: strain AN10, 24 h 37 °C
[19] = test system: MDRAB clinical strain AG51; assay type: cell-based, Acinetobacter baumannii; settings: strain AG51, 24 h 37 °C
Procedure: as §1

[20] = test system: MDRAB clinical strain AK29; assay type: cell-based, Acinetobacter baumannii; settings: strain AK29, 24 h 37 °C
[21] = test system: MDRAB clinical strain AF12; assay type: cell-based, Acinetobacter baumannii; settings: strain AF12, 24 h 37 °C
Procedure: as §1

[22] = test system: MDRAB clinical strain AE5; assay type: cell-based, Acinetobacter baumannii; settings: strain AE5, 24 h 37 °C
Procedure: as §1

[23] = test system: MDRAB clinical strain AF11; assay type: cell-based, Acinetobacter baumannii; settings: strain AF11, 24 h 37 °C
[24] = test system: MDRAB clinical strain AL87; assay type: cell-based, Acinetobacter baumannii; settings: strain AL87, 24 h 37 °C
[25] = test system: MDRAB clinical strain AF93; assay type: cell-based, Acinetobacter baumannii; settings: strain AF93, 24 h 37 °C
Procedure: as §1

[26] = test system: MDRAB clinical strain AS40; assay type: cell-based, Acinetobacter baumannii; settings: strain AS40, 24 h 37 °C
Procedure: as §1

[27] = test system: MDRAB clinical strain U80; assay type: cell-based, Acinetobacter baumannii; settings: strain U80, 24 h 37 °C
Procedure: as §1

[28] = 10 µL from wells without turbidity onto LB agar

**Q.** For FIHHIIGGLFSAGKAIHRLIRRRRR [TP4], which LD50 [1] is on record?
**A.** The LD50 was 10 to 20 mg/kg.

**Q.** With “AKKVFKRLGIGAVLKVLTTG [HPME, antimicrobial peptide]” as the substance, how does the “antimicrobial activity against Acinetobacter baumannii (inhibition zone assay)” value (“antimicrobial activity … (inhibition zone assay)” for short) [2] read?
**A.** The value was “without antimicrobial activity (The antimicrobial peptides without antimicrobial activity)”.

**Q.** With “GLLRKGGEKIGEKLKKIGQKIKNFFQKLVPQPEQ [CRAMP, antimicrobial peptide]” as the substance, how does the “antimicrobial activity … (inhibition zone assay)” value [2] read?
**A.** The value was “without antimicrobial activity (The antimicrobial peptides without antimicrobial activity)”.

**Q.** With “KRFRIRVRV [Peptide 1037, antimicrobial peptide]” as the substance, how does the “antimicrobial activity … (inhibition zone assay)” value [2] read?
**A.** Its value is “without antimicrobial activity (The antimicrobial peptides without antimicrobial activity)”.

**Q.** Which “antimicrobial activity … (inhibition zone assay)” value [2] does the source give for “KQFRIRVRV [Peptide 1029, antimicrobial peptide]” here?
**A.** Its value is “without antimicrobial activity (The antimicrobial peptides without antimicrobial activity)”.

**Q.** Which “antimicrobial activity … (inhibition zone assay)” value [2] does the source give for “AKKVFKRLG IGKFLHSAKKF-NH2 [HPMA, antimicrobial peptide]” here?
**A.** The value was “without antimicrobial activity (The antimicrobial peptides without antimicrobial activity)”.

**Q.** With ILGPVLSMVGSALGGLIKKI-NH2 [Maximin H2] as the substance, how does the MIC ([3]; broth microdilution, LB) read?
**A.** The MIC was 16 µg/mL.

**Q.** And the MBC ([3]; subculture on LB agar)?
**A.** The MBC was 32 µg/mL.

**Q.** What about the MIC ([4]; broth microdilution, LB) of the same substance?
**A.** The MIC was 64 µg/mL.

**Q.** What about the MBC ([4]; subculture on LB agar) of the same substance?
**A.** Its MBC is 128 µg/mL.

**Q.** What about the MIC ([5]; broth microdilution, LB) of the same substance?
**A.** Its MIC is 16 to 128 µg/mL.

**Q.** What about the MBC ([5]; subculture on LB agar) of the same substance?
**A.** Its MBC is 16 to 128 µg/mL.

**Q.** And the MIC ([6]; broth microdilution, LB)?
**A.** The MIC was 64 µg/mL.

**Q.** And the MBC ([6]; subculture on LB agar)?
**A.** The MBC was 64 µg/mL.

**Q.** What about the MIC ([7]; broth microdilution, LB) of the same substance?
**A.** Its MIC is 128 µg/mL.

**Q.** And the MBC ([7]; subculture on LB agar)?
**A.** Its MBC is 128 µg/mL.

**Q.** What about the MIC ([8]; broth microdilution, LB) of the same substance?
**A.** The MIC was 128 µg/mL.

**Q.** And the MBC ([8]; subculture on LB agar)?
**A.** Its MBC is 128 µg/mL.

**Q.** And the MIC ([9]; broth microdilution, LB)?
**A.** Its MIC is 64 µg/mL.

**Q.** What about the MBC ([9]; subculture on LB agar) of the same substance?
**A.** The MBC was 128 µg/mL.

**Q.** What about the MIC ([10]; broth microdilution, LB) of the same substance?
**A.** Its MIC is 128 µg/mL.

**Q.** And the MBC ([10]; subculture on LB agar)?
**A.** The MBC was 128 µg/mL.

**Q.** What about the MIC ([11]; broth microdilution, LB) of the same substance?
**A.** The MIC was 16 µg/mL.

**Q.** And the MBC ([11]; subculture on LB agar)?
**A.** The MBC was 16 µg/mL.

**Q.** And the MBC [12, 28]?
**A.** The MBC was 32 µg/mL.

**Q.** What about the MIC ([12]; broth microdilution (CLSI, modified), LB medium, 5 × 10^5 CFU/mL) of the same substance?
**A.** Its MIC is 32 µg/mL.

**Q.** What about the MIC ([13]; broth microdilution, LB) of the same substance?
**A.** Its MIC is 128 µg/mL.

**Q.** And the MBC ([13]; subculture on LB agar)?
**A.** Its MBC is 128 µg/mL.

**Q.** What about the MBC [14, 28] of the same substance?
**A.** Its MBC is 128 µg/mL.

**Q.** And the MIC ([14]; broth microdilution (CLSI, modified), LB medium, 5 × 10^5 CFU/mL, lowest concentration with no visible growth)?
**A.** The MIC was 64 µg/mL.

**Q.** And the MIC ([15]; broth microdilution, LB)?
**A.** The MIC was 64 µg/mL.

**Q.** What about the MBC ([15]; subculture on LB agar) of the same substance?
**A.** Its MBC is 64 µg/mL.

**Q.** What about the MIC ([16]; broth microdilution, LB) of the same substance?
**A.** Its MIC is 128 µg/mL.

**Q.** And the MBC ([16]; subculture on LB agar)?
**A.** The MBC was 128 µg/mL.

**Q.** And the MIC ([17]; broth microdilution, LB)?
**A.** The MIC was 64 µg/mL.

**Q.** And the MBC ([17]; subculture on LB agar)?
**A.** Its MBC is 128 µg/mL.

**Q.** And the MIC ([18]; broth microdilution, LB)?
**A.** Its MIC is 64 µg/mL.

**Q.** What about the MBC ([18]; subculture on LB agar) of the same substance?
**A.** Its MBC is 64 µg/mL.

**Q.** What about the MIC ([19]; broth microdilution, LB) of the same substance?
**A.** Its MIC is 32 µg/mL.

**Q.** What about the MBC ([19]; subculture on LB agar) of the same substance?
**A.** The MBC was 64 µg/mL.

**Q.** What about the MIC ([20]; broth microdilution, LB) of the same substance?
**A.** The MIC was 32 µg/mL.

**Q.** What about the MBC ([20]; subculture on LB agar) of the same substance?
**A.** The MBC was 32 µg/mL.

**Q.** And the MIC ([21]; broth microdilution, LB)?
**A.** The MIC was 64 µg/mL.

**Q.** And the MBC ([21]; subculture on LB agar)?
**A.** Its MBC is 64 µg/mL.

**Q.** What about the MIC ([22]; broth microdilution, LB) of the same substance?
**A.** The MIC was 64 µg/mL.

**Q.** What about the MBC ([22]; subculture on LB agar) of the same substance?
**A.** Its MBC is 128 µg/mL.

**Q.** What about the MIC ([23]; broth microdilution, LB) of the same substance?
**A.** The MIC was 128 µg/mL.

**Q.** What about the MBC ([23]; subculture on LB agar) of the same substance?
**A.** Its MBC is 128 µg/mL.

**Q.** What about the MIC ([24]; broth microdilution, LB) of the same substance?
**A.** The MIC was 64 µg/mL.

**Q.** And the MBC ([24]; subculture on LB agar)?
**A.** Its MBC is 64 µg/mL.

**Q.** What about the MIC ([25]; broth microdilution, LB) of the same substance?
**A.** Its MIC is 64 µg/mL.

**Q.** What about the MBC ([25]; subculture on LB agar) of the same substance?
**A.** Its MBC is 64 µg/mL.

**Q.** And the MIC ([26]; broth microdilution, LB)?
**A.** Its MIC is 64 µg/mL.

**Q.** What about the MBC ([26]; subculture on LB agar) of the same substance?
**A.** Its MBC is 64 µg/mL.

**Q.** What about the MIC ([27]; broth microdilution, LB) of the same substance?
**A.** Its MIC is 128 µg/mL.

**Q.** And the MBC ([27]; subculture on LB agar)?
**A.** Its MBC is 128 µg/mL.

Source: PMC8016998, “Identification of potential therapeutic antimicrobial peptides against Acinetobacter baumannii in a mouse model of pneumonia” (Scientific Reports, 2021)
